Experimental data: publication PMC9266914, “Broad Spectrum Functional Activity of Structurally Related Monoanionic Au(III) Bis(Dithiolene) Complexes” (International Journal of Molecular Sciences, 2022)
Where “and” joins values, the source holds several entries; their conditions need not be identical. Identical values can stand only once. Like-named read-outs stand apart in the source and are kept apart here.

How the values were obtained:
[1] = test system: S. aureus Newman; experiment: MIC determination, S. aureus; format: cell-based, Staphylococcus aureus; details: MH broth, 22 h, 37 °C
Description: (§1) The bacterial strains Escherichia coli ATCC25922 and Staphylococcus aureus Newman were used in this work and maintained in Lennox Broth (LB) solid medium, composed of 10 g/L tryptone, 5 g/L yeast extract, 5 g/L NaCl and 20 g/L agar. The fungal strains Candida albicans SC5134 and C. glabrata CBS138 were used in this work and maintained in YPD solid medium, composed of 20 g/L glucose, 20 g/L peptone, 10 g/L yeast extract and 15 g/L agar. The strains were isolated from human infections.
(§2) The antimicrobial activity of the complexes towards the bacterial and fungal strains was assessed by the determination of the Minimal Inhibitory Concentration (MIC) of each complex towards the indicated microbial strains, based on standard methods, and as previously described. […] Serial 1:2 dilutions of stock solutions were prepared for each complex in Mueller–Hinton (MH) broth (Fluka Analytical) or RPMI-1640 medium (Sigma) supplemented with 20 g/L glucose and buffered with 0.165 M morpholinepropanesulphonic acid (RPMIG) to pH 7.0. Solutions prepared with MH were used for testing bacteria, while those prepared with RPMIG were used for testing fungi. For antibacterial activity assays, the final concentrations ranged from 250 to 0.24 μg/mL (when stock solution final concentration was 10 mg/mL), 125 μg/mL to 0.12 μg/mL (when stock solution final concentration was 5 mg/mL) and 62.5 to 0.06 μg/mL (when stock solution final concentration was 2.5 mg/mL). For antifungal assays, the final concentrations ranged from 125 μg/mL to 0.12 μg/mL (when stock solution final concentration was 10 mg/mL), 62.5 to 0.06 μg/mL (when stock solution final concentration was 5 mg/mL) and 31.25 to 0.03 μg/mL (when stock solution final concentration was 2.5 mg/mL). Then, 100 μL aliquots of adequately diluted bacterial suspensions of S. aureus Newman or E. coli ATCC 25922 were mixed with the MH serially diluted complexes aliquots to obtain 5 × 10^5 CFU/mL. In the case of fungi, cultures were diluted to obtain a final optical density of 0.025, measured at 530 nm (OD530). Bacterial suspensions were prepared from cultures grown for 5 h in MH broth at 37 °C and 250 rev·min^−1 and adequately diluted with fresh MH medium, while fungal suspensions were prepared from overnight cultures grown in YPD broth at 30 °C and 250 rev.min^−1 and diluted in buffered RPMIG. After 22 h of incubation at 37 °C (bacteria) or 24 h at 35 °C (fungi), the wells’ content was resuspended by pipetting and the OD640 (bacteria) or OD530 (fungi) were measured in a SPECTROstar Nano microplate reader (BMG Labtech).
(§3) At least three independent experiments were performed in duplicate for each complex under study. […] Positive (no complex) and negative controls (no inoculum) were performed for each experiment. The effect of 5% (V/V) DMSO on microbial growth was also assessed.

[2] = test system: P. berghei hepatic stage; experiment: In vitro activity against the hepatic stage of P. berghei infection (luciferase, Huh7 cells); format: cell-based, Plasmodium berghei; details: hepatic stage, Huh7 cells, 46 hpi
Experimental: The in vitro liver stage activity of gold complexes was assessed against P. berghei-infected Huh7 cells, as previously described. Briefly, Huh7 cells were cultured in RPMI-1640 medium supplemented with 10% (v/v) fetal bovine serum, 1% (v/v) penicillin/streptomycin, 1% (v/v) glutamine, 1% (v/v) non-essential amino acids and 10 mM HEPES. On the day prior to infection, Huh7 cells were seeded in 96-well plates at a density of approximately 3.1 × 10^4 cell/cm^2 and incubated at 37 °C, 5% CO2. Stock solutions of the complexes were initially prepared in DMSO and serially diluted in infection medium, i.e., culture medium supplemented with gentamicin (50 µg/mL) and fungizone (0.8 µg/mL), to obtain the test concentrations. As a control, DMSO was diluted in infection medium to a percentage that equals that of the highest compound concentrations tested. These dilutions were added to the cells in triplicates and incubated for 1 h at 37 °C, 5% CO2, after which 1 × 10^4 luciferase-expressing P. berghei sporozoites were added to each well. Plates were centrifuged at 1800× g for 5 min at room temperature and incubated for the duration of the assay. At 46 h post-infection (hpi), the impact of each compound concentration on cell viability was assessed by the Alamar Blue (Invitrogen, Buckinghamshire, UK) assay, according to the manufacturer’s recommendations. Infection was next assessed by bioluminescence, employing the Firefly Luciferase Assay Kit 2.0 (Biotium, Fremont, CA, USA), according to the manufacturer’s recommendations. For IC50 determination, nonlinear regression analysis was employed to fit the normalized results of the dose–response curves, using GraphPad Prism 8 (GraphPad software, La Jolla, CA, USA).

[3] = test system: C. albicans SC5134; experiment: MIC determination, C. albicans; format: cell-based, Candida albicans; details: RPMIG, 24 h, 35 °C
Description: as §1, §2, §3

[4] = test system: TZM-bl cells; experiment: alamarBlue cytotoxicity in TZM-bl cells; format: cell-based
Experimental: The in vitro cytotoxicity of auranofin, [P][AuSBu(=S)] and [P][AuSEt(=S)] was evaluated in TZM-bl cells using alamarBlue cell viability reagent (Life Technologies, Carlsbad, CA, USA). TZM-bl cells (AIDS Research and Reference Reagent Program, National Institutes of Health, Bethesda, MD, USA) were cultured in complete growth medium that consists of Dulbecco’s minimal essential medium (DMEM) supplemented with 10% fetal bovine serum (FBS), 100 U/ml of penicillin-streptomycin (Gibco/Invitrogen, Waltham, MA, USA), 1 mM of sodium pyruvate (Gibco/Invitrogen, Carlsbad, CA, USA), 2 mM of L-glutamine (Gibco/Invitrogen, USA) and 1 mM of non-essential amino acids (Gibco/Invitrogen, USA). Cells were cultured in the presence and absence of serial-fold dilutions of the compounds. At least two independent experiments were performed for each cytotoxicity analysis. Each dilution of each compound was performed in triplicate wells. For each assay we had medium controls (only growth medium), cell controls (cells without test compound) and cytotoxicity controls (a compound that kill cells). The cytotoxicity of each compound was expressed by the 50% cytotoxic concentration (CC50), which is the concentration of compound causing 50% decrease in cellular viability.

SMILES: CCn1c2c(sc1=[Se])[S][Au-]1([S]c3sc(=[Se])n(CC)c3[S]1)[S]2.c1ccc([P+](c2ccccc2)(c2ccccc2)c2ccccc2)cc1 [[P][AuSEt(=Se)]]
- MIC S. aureus Newman [1]: >125 µg/mL
- IC50 [2]: 416 ± 123 nM
- MIC C. albicans SC5134 [3]: >62.5 µg/mL

SMILES: CC(=O)OC[C@H]1O[C@@H]([S-])[C@H](OC(C)=O)[C@@H](OC(C)=O)[C@@H]1OC(C)=O.CCP(CC)CC.[Au+] [Auranofin, reference compound]
- CC50 ([4]; TZM-bl cells, alamarBlue, read-out: CC50): 3210 nM
- MIC S. aureus Newman [1]: 0.2 µg/mL and 0.173 ± 0.004 µg/mL
- MIC C. albicans SC5134 [3]: 7.9 µg/mL and 7.9 ± 0.5 µg/mL

SMILES: CCCCn1c2c(sc1=S)[S][Au-]1([S]c3sc(=S)n(CCCC)c3[S]1)[S]2.c1ccc([P+](c2ccccc2)(c2ccccc2)c2ccccc2)cc1 [[P][AuSBu(=S)]]
- CC50 [4]: not possible to calculate
- cytotoxicity in TZM-bl culture cells [4]: No significant cytotoxicity
- MIC S. aureus Newman [1]: >125 µg/mL
- IC50 [2]: 470 ± 115 nM
- MIC C. albicans SC5134 [3]: >62.5 µg/mL

SMILES: CCn1c2c(sc1=S)[S][Au-]1([S]c3sc(=S)n(CC)c3[S]1)[S]2.c1ccc([P+](c2ccccc2)(c2ccccc2)c2ccccc2)cc1 [[P][AuSEt(=S)]]
- CC50 [4]: 4920 nM
- cytotoxicity in TZM-bl culture cells [4]: No significant cytotoxicity
- MIC S. aureus Newman [1]: >125 µg/mL
- IC50 [2]: 474 ± 110 nM
- MIC C. albicans SC5134 [3]: >62.5 µg/mL

SMILES: CC(C)n1c2c(sc1=S)[Se][Au-]1([Se]c3sc(=S)n(C(C)C)c3[Se]1)[Se]2.c1ccc([P+](c2ccccc2)(c2ccccc2)c2ccccc2)cc1 [[P][AuSeiPr(=S)]]
- MIC S. aureus Newman [1]: >62.5 µg/mL
- IC50 [2]: 748 ± 70.2 nM
- MIC C. albicans SC5134 [3]: >31.25 µg/mL
